In assay [1] the test system is DBA/1 mice with established collagen-induced arthritis. Kind of assay: Effect of tranilast on established collagen-induced arthritis (Example 1). The class given is in vivo, mouse. The settings on record: for Histological score (mean ± SE): 10 days, score 0-3. On the procedure: FIG. 1 is a graphical representation of the amelioration of established collagen-induced arthritis (CIA) by intraperitoneal administration of tranilast. DBA/1 mice were immunised with bovine type II collagen in complete Freund's adjuvant in order to induce arthritis. After onset of clinical disease mice were randomly assigned to different treatment groups and given tranilast at 100, 200 or 400 mg/kg/day or vehicle control. Clinical scores were assessed throughout the treatment period using a clinical scoring system described in the Examples. The maximum possible score per mouse is 8. There were 7-10 mice per treatment group.
FIG. 2 is a graphical representation of the amelioration of established CIA by administration of tranilast. DBA/1 mice were immunised with bovine type II collagen in complete Freund's adjuvant in order to induce arthritis. After onset of clinical disease mice were randomly assigned to different treatment groups and given tranilast at 100, 200 or 400 mg/kg/day (i.p.) or vehicle control. Paw-swelling was measured throughout the treatment. There were 7-10 mice per treatment group.
Bovine CII was purified and prepared as previously described (9) and solubilised by stirring overnight at 4° C. in 0.1M acetic acid.
Male DBA/1 mice (7-8 animals/group) were immunised i.d. at 8-12 weeks of age with bovine CII (200 μg/mouse), emulsified in CFA (Difco Laboratories, West Moseley, UK). Beginning at 14 days after immunisation, mice were inspected daily for signs of arthritis and treatment was initiated on day 1 of arthritis. This research was approved by the local Ethical Review Process Committee and by the Home Office of the United Kingdom.
Tranilast was dissolved in 1% NaHCO3 by heating to 70° C. and injected i.p. at 100, 200 or 400 mg/kg/day.
The development of arthritis was assessed daily for the duration of the experiment. The clinical severity of arthritis was graded as follows, 0=normal, 1=slight swelling and/or erythema, 2=pronounced oedematous swelling. Each limb was graded, allowing a maximal clinical score of 8 for each animal. Swelling of hind paws was recorded with a pair of calipers. All clinical evaluations were performed in a blinded manner.
At the end of the treatment period the mice were killed, bled and their joints were processed for histology. The first limb to show clinical evidence of arthritis was removed, fixed, decalcified, and embedded before sectioning and staining with haemotoxylin and eosin. Saggital sections were examined by microscopy in a blinded fashion and joints were graded as follows: 0=normal; 1=mild synovitis without cartilage loss or bone erosion; 2=moderate or severe synovitis with erosions present but normal joint architecture intact; 3=severe synovitis with extensive erosions and normal joint architecture disrupted.
DBA/1 mice were immunised with bovine type II collagen in complete Freund's adjuvant in order to induce arthritis. After onset of clinical disease mice were randomly assigned to different treatment groups and given tranilast at 100, 200 or 400 mg/kg/day (i.p.) or vehicle control. Treatment was continued for 10 days after which time the mice were killed and paws were processed for histology. Joints were graded histologically in a blinded fashion.

Assay [2] concerns B cells activated with LPS, anti-CD40 or anti-IgM antibody. As to the kind of experiment: B cell proliferation, 3[H]thymidine incorporation (Example 3). The class given is cell-based, mouse. The conditions noted are these: for anti-IgM induced proliferation: 12.5-100 μg/ml; for inhibition at 100 µg/mL: Mus musculus, B-cell, 100 μg/ml. On the procedure:
FIG. 4 is a graphical representation depicting that B cell proliferation induced by LPS and anti-CD40 is inhibited by Tranilast. B-cells were activated in vitro with LPS or anti-CD40 antibody and 6.25-100 μg/ml tranilast. Proliferation was assessed using ^3[H]thymidine incorporation. LPS and anti-CD40 induced a 92- and 258-fold increase in thymidine incorporation respectively.
FIG. 5 is a graphical representation depicting that B cell proliferation induced by LPS and anti-CD40 and anti-IgM is inhibited by tranilast. B-cells were activated in vitro with LPS or anti-CD40 antibody or anti-IgM antibody, and 12.5-100 μg/ml tranilast. Proliferation was assessed using ^3[H]thymidine incorporation. LPS, anti-CD40 and anti-IgM induced 91- and 81- and 60-fold increases in thymidine incorporation respectively.
B cells were prepared from mouse spleen using rat anti-mouse IgM microbeads and the MACS system.
3 spleens were removed from male DBA/1 mice aged 8-12 weeks. A single cell suspension was prepared by cell-sieve.
Cells were cultured at 1×10^6 cells/ml in 200 μl complete RPMI with glutamine (10% FCS, 1% Pen/Strep, 50 μM 2-Mercaptoethanol, 1 mM Na-Pyruvate) in a 96-well plate for 48 h in the presence of LPS (20 μg/ml), azide-free anti-CD40 monoclonal antibody (10 μg/ml), or azide free F(ab′)2 fragment of anti-IgM monoclonal antibody (20 μg/ml) and 100-6.25 μg/ml tranilast, or vehicle (DMSO).
1 μCi ^3[H]thymidine was added to each well and incubated overnight. Cells were harvested onto a pre-wet filter mat using a Skaton cell harvester. The filter mat was dried in a microwave for 2 minutes at 750 W. The dry filter mat was sealed in a bag using a plate sealer, and the corner cut. 10 ml scintillation fluid was placed in the bag, and spread evenly over the filter mat. The bag was re-sealed and read in a Wallac 1205 plate reader.

From patent US20100041756A1, “METHOD OF MODULATING B CELL FUNCTIONING” (priority 2004, published 2010) come the findings set out here.

Like-named read-outs stand apart in the source and are kept apart here.

As for `COc1ccc(/C=C/C(=O)Nc2ccccc2C(=O)O)cc1OC` [Tranilast, 2-[[3-(3,4-dimethoxyphenyl)-1-oxo-2-propenyl]amino]benzoic acid], the “Histological score (mean ± SE)” value worked out at 1.64 ± 0.35 in assay [1] (100 mg/kg/day i.p.), 1.19 ± 0.35 in assay [1] (200 mg/kg/day i.p.) and 0.57 ± 0.20 in assay [1] (400 mg/kg/day i.p.). Besides, in assay [1] (100, 200 or 400 mg/kg/day i.p., 10 days (FIG. 1)), the clinical scores result is reported as “reduced clinical scores in a dose-dependent fashion”. Further, in assay [1] (100, 200 or 400 mg/kg/day i.p., 10 days (FIG. 2)), the paw-swelling entry is listed as “reduced paw-swelling in a dose-dependent fashion”. For the same compound, the “synovitis, cartilage loss and bone erosion (histology)” value in assay [1] (compared to control mice, end of 10 day treatment) was “reduced level of synovitis, cartilage loss and bone erosion”. For the same compound, the “B cell proliferation induced by LPS or anti-CD40” value was “significantly inhibited” in assay [2] (37.5 μg/ml, FIG. 5); “significantly inhibited” in assay [2] (100 μg/ml and 50 μg/ml, FIG. 4). Besides, the anti-IgM induced proliferation result is “effective at all doses assessed” in assay [2] (FIG. 5) and “all doses tested inhibited” in assay [2] (FIG. 5, listed as tranilast). Further, the inhibition at 100 µg/mL in assay [2] (FIG. 4, read-out: inhibition of B cell proliferation induced by LPS) was determined as 99%; in assay [2] (FIG. 4, read-out: inhibition of B cell proliferation induced by anti-CD40) it was 97%; in assay [2] (FIG. 5, read-out: maximum inhibition of B cell proliferation (LPS)), 96%; in assay [2] (FIG. 5, read-out: maximum inhibition of B cell proliferation (anti-CD40)), 91%; in assay [2] (FIG. 5, read-out: maximum inhibition of B cell proliferation (anti-IgM)) it was 98%.
